Source: US20050084524A1, “Method for potentiating activity of a chemotherapeutic drug” (ALZA Corporation, priority 1998, published 2005)
Marks after values point to notes of the source that are not given here.

How the values were obtained:
[1] = test system: A431 tumor; test: A431 tumor xenograft implanted subcutaneously in nude mice, tumor volume; format: in vivo
Source text: In studies performed in support of the invention, a xenograft of the A431 tumor was implanted subcutaneously in nude mice. […] The liposomes included a vesicle-forming lipid derivatized with the hydrophilic polymer polyethyleneglycol.

[2] = test system: BT474 xenografts; test: BT474 human breast cancer xenograft, doxorubicin studies 1-3; format: in vivo, mice
Description: In study numbers 1, 2 and 3 immune-deficient mice were inoculated by subcutaneous injection into the dorsum with 5 million BT474 cells in 0.1 mL added to an equal volume of Matrigel for an inoculation volume of 0.2 mL. The inoculated mice were divided into six treatment groups of 12 mice each, prior to inoculation. Treatment was initiated when the average tumor volume was 100 mm^3, which occurred approximately 7-10 days after inoculation.
Saline, doxorubicin and liposome-entrapped doxorubicin were administered by intravenous injection for three treatments. […] The animals were monitored daily and the tumors were measured in three dimensions twice weekly over the study period.
(§1) 1. BT474 and MDA453 Cells: The BT474 and MDA453 tumors were each inoculated from cultured cells in exponential growth. Cells were trypsinized, collected and washed in media. Cells were counted by hemacytometer, spun down and resuspended in media at 50 million cells per milliliter of media. Resuspended cells were chilled, then mixed with an equal volume of Matrigel. Cells (5 million cells per 0.2 ml injection volume, continuously mixed) were drawn into individual, chilled syringes for subcutaneous injection into the dorsum of each animal.
(§2) Immune deficient mice were used in all experiments. Study numbers 1, 2, 3 and 4 were conducted in homozygous nude female mice. Study number 5 was conducted in homozygous ICR scid female mice. All mice were obtained at the age of four weeks and acclimated for a minimum of 1 week prior to tumor inoculation. All mice were ear tagged for individual identification during acclimation. For each study, 75 mice were inoculated with tumors to supply 72 study animals at treatment.
(§3) Animals were weighed prior to inoculation of tumors and at least weekly thereafter. Tumors were measured twice weekly throughout the experiment, beginning 6-8 days after tumor inoculation. Tumor measurements were made by digital caliper in 3 dimensions and the volume recorded as one-half the product of these measurements. Any animal observed to have 15% or greater weight loss from the initial starting weight was immediately euthanized by inhalation of 100% carbon dioxide. Any animal observed to have greater than 4,000 mm^3 tumor volume was immediately euthanized by inhalation of 100% carbon dioxide.
Animals were divided into 6 treatment groups prior to inoculation of tumors. […] Treatment was initiated when average tumor volume was 100 mm^3 (approximately 7-10 days after inoculation).
Tumor volumes, measured repeatedly throughout the experiments, were used for analysis as correlated information. Since tumor growth over time after treatment was of interest, repeated measurement analysis for each treatment group was performed. All tumor volumes were log transformed, with z=log10(y+1) where y is the calculated tumor volume, thus when y=0, z is meaningful and z=0. Log growth rates for transformed values, z, for each treatment group within each experiment were calculated and compared in linear regression. If the log growth rate is positive for a certain treatment, this means that the tumors still grow even after receiving the drug; if the log growth rate is negative, this means that the tumors begin to shrink after receiving the drug; if the log growth rate is 0, then the tumors stop growing after receiving the drug. A p-value of 0.05 or less is statically significant.

[3] = test system: MDA453 xenografts; test: MDA453 human breast cancer xenograft, doxorubicin study 4; format: in vivo, mice
Description: as §1
Immune deficient mice were used in all experiments. Study numbers 1, 2, 3 and 4 were conducted in homozygous nude female mice. […]
(§4) Animals were weighed prior to inoculation of tumors and at least weekly thereafter. Tumors were measured twice weekly throughout the experiment, beginning 6-8 days after tumor inoculation. Tumor measurements were made by digital caliper in 3 dimensions and the volume recorded as one-half the product of these measurements. […]
(§5) Tumor volumes, measured repeatedly throughout the experiments, were used for analysis as correlated information. […] All tumor volumes were log transformed, with z=log10(y+1) where y is the calculated tumor volume, thus when y=0, z is meaningful and z=0. Log growth rates for transformed values, z, for each treatment group within each experiment were calculated and compared in linear regression. […]

[4] = test system: B585 xenografts; test: B585 primary human breast cancer xenograft, doxorubicin study 5; format: in vivo, mice; conditions: doxorubicin HCl or liposome-entrapped 4 mg/kg iv once/week x3, anti-HER2 antibody 3 mg/kg ip twice/week x6
Description: 2. […] Resuspended cells were chilled, then mixed with an equal volume of Matrigel. Cells (5 million cells per 0.2 ml injection volume, continuously mixed) were drawn into individual, chilled syringes for subcutaneous injection into the dorsum of each animal.
as §2, with “For each study, 75 mice were inoculated with tumors to supply 72 study animals at treatment.” left out
as §4, §5

[5] = test system: BT474 xenografts; test: BT474 human breast cancer xenograft, cisplatin studies 6-7; format: in vivo, mice
Description: In Study No. 6, mice were inoculated with BT474 cells.
The animals were dosed as described in Example 2, with the saline and chemotherapeutic agent administered intravenously once per week and the biological agent administered intraperitoneally twice per week.
(§6) Two separate HER2-overexpressing human breast cancer xenograft models were utilized: BT474 and MDA453. The BT474 or MDA453 tumors were inoculated from cultured cells in exponential growth. Cells were trypsinized, collected and washed in media. Cells were counted by hemacytometer, spun down and resuspended in media at 50 million cells per milliliter of media (5 million cells per 0.1 ml injection volume). Resuspended cells were chilled, then mixed in an equal volume of Matrigel. Cells (0.2 ml, continuously mixed) were drawn into individual, chilled syringes for subcutaneous injection into the dorsum of each animal.
(§7) Immune-deficient female mice (NCR.nu/nu, Taconic Farms, Germantown, N.Y.) were obtained from the vendor and acclimated for at least 7 days prior to initiation of experiments. Animals were housed in microisolator caging (Thoren Caging, Hazelton, Pa.) with ad lib gamma irradiated rodent food and autoclaved, acidified water. Lights were set for 12:12 light: dark cycle. All animals received a 0.72 mg estradiol 17β sustained release pellet (Innovative Research of America, Sarasota, Fla.) by subcutaneous injection 24 hours prior to tumor inoculation. Animals were randomized into treatment groups prior to inoculation of tumors.
as §3, with “one half” for “one-half”, “euthanized.” for “euthanized by inhalation of 100% carbon dioxide.”
(§8) Animals were divided into 6 treatment groups (12 animals each) prior to inoculation of tumors in all experiments.
All treatments were administered for 3 weekly cycles. Treatment was initiated when average tumor volume was 75 mm^3 (approximately 6-10 days after inoculation).
Tumor volumes, measured repeatedly throughout experiments, were used for analysis as correlated information. Since tumor growth over time after treatment was of interest, repeated measurement analysis for each treatment group was performed. Growth rates (slope) for each treatment group within each experiment were calculated and compared in linear regression. If the growth rate was positive for a certain treatment, tumors were still growing even after receiving the drug; if the growth rate is negative, tumors began to shrink after receiving the drug; if the growth rate is 0, tumors stop growing after receiving the drug. A p-value of 0.05 or less is considered significant.
(§9) Tumor size at specific times after treatment was compared between treated and control groups. Tumor growth inhibition was reported as % T/C which is the tumor size of each treated group divided by the control group, expressed as a percentage.

[6] = test system: MDA453 xenografts; test: MDA453 human breast cancer xenograft, cisplatin study 8; format: in vivo, mice
Description: as §6, §7
as §4, with “one half” for “one-half”
Tumor volumes, measured repeatedly throughout experiments, were used for analysis as correlated information. […] Growth rates (slope) for each treatment group within each experiment were calculated and compared in linear regression. […]
as §9

[7] = Maximum tolerated dose (MTD) in immune-deficient mice; format: in vivo; conditions: once weekly, intravenous
Source text: as §8

With `COc1cccc2c1C(=O)c1c(O)c3c(c(O)c1C2=O)C[C@@](O)(C(=O)CO)C[C@@H]3O[C@H]1C[C@H](N)[C@H](O)[C@H](C)O1` [doxorubicin] the “Tumor Volume at 40 days” value ([1]; 40 days following tumor implantation) was 1700 mm^3, the “Tumor Volume at 60 days” value ([1]; 60 days following tumor implantation) was 3650 mm^3 and the “tumor volume as a function of time (FIG. 1), in words” value ([1]; treatment from day 6) was “still an increase in tumor size but to a lesser extent”. For the same molecule, the “Log Growth Rate, Study No. 1” value ([2]; BT474, doxorubicin HCl 4 mg/kg or liposome-entrapped 3 mg/kg iv once/week x3, anti-HER2 antibody 10 mg/kg ip twice/week x6) was 0.027, the “Log Growth Rate, Study No. 3” value ([2]; BT474, doxorubicin HCl or liposome-entrapped 3 mg/kg iv once/week x3, anti-HER2 antibody 1 mg/kg ip twice/week x6) was 0.011^a and the “Log Growth Rate, Study No. 2” value ([2]; BT474, doxorubicin HCl or liposome-entrapped 5 mg/kg iv once/week x3, anti-HER2 antibody 3 mg/kg ip twice/week x6) was 0.010^a. The “tumor volume over treatment period (FIGS. 2A-2B), in words” value ([2]; Study No. 1, BT474, doxorubicin 4 mg/kg, liposomal 3 mg/kg, antibody 10 mg/kg) was “continual tumor growth”, the “tumor volume over treatment period (FIGS. 3A-3B), in words” value ([2]; Study No. 2, BT474, doxorubicin 5 mg/kg, liposomal 5 mg/kg, antibody 3 mg/kg) was “reduced tumor volume relative to the control animals” and the “tumor volume over treatment period (FIGS. 4A-4B), in words” value ([2]; Study No. 3, BT474, doxorubicin 3 mg/kg, liposomal 3 mg/kg, antibody 1 mg/kg) was “fared better than the untreated animals”. For the same molecule, the “Log Growth Rate, Study No. 4” value ([3]; MDA453, doxorubicin HCl or liposome-entrapped 5 mg/kg iv once/week x3, anti-HER2 antibody 5 mg/kg ip twice/week x6) was 0.020^a, the “tumor volume over treatment period (FIGS. 5A-5B), in words” value ([3]; Study No. 4, MDA453, doxorubicin 5 mg/kg, liposomal 5 mg/kg, antibody 5 mg/kg) was “continual increase in tumor volume” and the “Log Growth Rate, Study No. 5” value [4] was 0.052.

For `N.N.[Cl][Pt][Cl]` [Cisplatin, cisplatin], the “Size of treated tumors as a function of size of control tumors, % T/C, Study No. 6” value ([5]; Day 44, BT474, cisplatin 6 mg/kg, antibody 3 mg/kg, control saline) was 10.0 % T/C, the “Size of treated tumors as a function of size of control tumors, % T/C, Study No. 7” value ([5]; Day 49, BT474, cisplatin 4 mg/kg, antibody 0.5 mg/kg, control saline) was 41.7 % T/C and the “tumor volume over treatment period (FIGS. 7A-7B), in words” value ([5]; Study No. 6, BT474, cisplatin 6 mg/kg, antibody 3 mg/kg) was “fared considerably better than the untreated animals”. The “tumor volume over treatment period (FIG. 8), in words” value ([5]; Study No. 7, BT474, cisplatin 4 mg/kg, antibody 0.5 mg/kg) was “continual tumor growth”, the “Growth rate of tumors (slope), Study No. 7 BT474” value ([5]; cisplatin or liposome-entrapped cisplatin 4 mg/kg iv once/week x3, anti-HER2 antibody 0.5 mg/kg ip twice/week x6) was 14.35^b and the “Growth rate of tumors (slope), Study No. 6 BT474” value ([5]; cisplatin or liposome-entrapped cisplatin 6 mg/kg iv once/week x3, anti-HER2 antibody 3 mg/kg ip twice/week x6) was 1.02. The “Size of treated tumors as a function of size of control tumors, % T/C, Study No. 8” value ([6]; Day 33, MDA453, cisplatin 4 mg/kg, antibody 1 mg/kg, control saline) was 56.1 % T/C, the “tumor volume over treatment period (FIGS. 9A-9B), in words” value ([6]; Study No. 8, MDA453, cisplatin 4 mg/kg, antibody 1 mg/kg) was “continual tumor growth” and the “Growth rate of tumors (slope), Study No. 8 MDA453” value ([6]; cisplatin or liposome-entrapped cisplatin 4 mg/kg iv once/week x3, anti-HER2 antibody 1 mg/kg ip twice/week x6) was 19.84^e. It also gave an MTD [7] of 6 mg/kg.
